Results published in patent US5354892A, “Biaryl substituted 4-amino-butyric acid amides” (Ciba-Geigy Corporation, priority 1993, dated 1994).

Assays:
[1] = tested on: rat plasma ANF concentration; test: Effect on rat plasma ANF concentration (ANF-infused conscious rats, radioimmunoassay); assay type: in vivo; details: doses of about 1-30 mg/kg p.o., administered in 10% ethanol/PEG 400, ANF infusion 450 ng/kg/min i.v.
Description: The effect of the compounds of the invention on rat plasma ANF concentration can be determined as follows:
Male Sprague-Dawley rats (275-390 g) are anesthetized -with ketamine (150 mg/kg)/acepromazine (10%) and instrumented with catheters in the femoral artery and vein to obtain blood samples and infuse ANF. respectively. The rats are tethered with a swivel system and are allowed to recover for 24 hours before being studied in the conscious, unrestrained state.
In this assay, plasma ANF levels are determined in the presence and absence of NEP inhibition. On the day of study, all rats are infused continuously with ANF at 450 ng/kg/min. i.v. for the entire 5 hours of the experiment. Sixty minutes after beginning the infusion, blood samples for baseline ANF measurements are obtained (time 0) and the rats are then randomly divided into groups treated with the test compound or vehicle. Additional blood samples are taken 30, 60, 120, 180 and 240 minutes after administration of the test compound.
Plasma concentrations are determined by a specific radioimmunoassay. […] The supernatant is decanted and the pellets counted in a gamma counter. […] Plasma ANF levels are expressed as a percent of those measured in vehicle-treated animals which received ANF alone (450 ng/kg/min i.v.).

[2] = tested on: DOCA-salt hypertensive rats; test: Antihypertensive effect in DOCA-salt hypertensive rats; assay type: in vivo; details: DOCA-salt hypertensive rat model; 30 mg/kg p.o., administered in PEG 400
Description: The antihypertensive effect can be determined in desoxycorticosterone acetate (DOCA)-salt hypertensive rats.
DOCA-salt hypertensive rats (280-380 g) are prepared by the standard method. Rats underwent a unilateral nephrectomy and one week later are implanted with silastic pellets containing 100 mg/kg of DOCA. The rats are maintained on 1% NaCl/0.2% KCl drinking water for three to five weeks until sustained hypertension is established. The antihypertensive activity is evaluated at this time.
Two days before an experiment, the rats are anesthetized with methoxyflurane and instrumented with catheters in the femoral artery to measure arterial blood pressure. Forty-eight hours later, baseline arterial pressure and heart rate are recorded during a 1 hour period. The test compound (30 mg/kg p.o.) or vehicle is then administered and the same cardiovascular parameters are monitored for an additional 5 hours.

Question: Which results are given for `CCOC(=O)[C@H](C)C[C@@H](Cc1ccc(-c2ccccc2)cc1)NC(=O)CCC(=O)O` [N-(3-carboxy-1-oxopropyl)-(4S)-(p-phenylphenylmethyl)-4-amino-2R-methylbutanoic acid ethyl ester]?
Answer: plasma ANF levels [1]: significant increases in plasma ANF levels; blood pressure [2]: significant reduction in blood pressure
